Ends that are not written are not given here.
B1: IL-7: cytokine interleukin-7 (protein, UniProt P13232 26-177, looked up)
Interleukin-7: DCDIEGKDGKQYESVLMVSIDQLLDSMKEIGSNCLNNEFNFFKRHICDANKEGMFLFRAARKLRQFLKMNSTGDFDLHLLKVSEGTTILLNCTGQVKGRKPAALGEAQPTKSLEENKSLKEQKKLNDLCFLKRLLQEIKTCWNKILMGTKEH
B2: IL-12: heterodimeric cytokine interleukin-12 (protein, UniProt P29459 23-219; P29460 23-328, looked up)
Interleukin-12 subunit alpha: RNLPVATPDPGMFPCLHHSQNLLRAVSNMLQKARQTLEFYPCTSEEIDHEDITKDKTSTVEACLPLELTKNESCLNSRETSFITNGSCLASRKTSFMMALCLSSIYEDLKMYQVEFKTMNAKLLMDPKRQIFLDQNMLAVIDELMQALNFNSETVPQKSSLEEPDFYKTKIKLCILLHAFRIRAVTIDRVMSYLNAS
Interleukin-12 subunit beta: IWELKKDVYVVELDWYPDAPGEMVVLTCDTPEEDGITWTLDQSSEVLGSGKTLTIQVKEFGDAGQYTCHKGGEVLSHSLLLLHKKEDGIWSTDILKDQKEPKNKTFLRCEAKNYSGRFTCWWLTTISTDLTFSVKSSRGSSDPQGVTCGAATLSAERVRGDNKEYEYSVECQEDSACPAAEESLPIEVMVDAVHKLKYENYTSSFFIRDIIKPDPPKNLQLKPLKNSRQVEVSWEYPDTWSTPHSYFSLTFCVQVQGKSKREKKDRVFTDKTSATVICRKNASISVRAQDRYYSSSWSEWASVPCS

test system: influenza antigen (Influenza APR834); type: in vivo; set-up: key: greater immune response (as indicated by X) as compared to the inoculums that contained Fluzone alone, or the non-immune inoculums; conditions: adjuvant with Fluzone, intradermal, Balb/c mice, one immunization, sera 21 days, vs Fluzone alone

Q: IL-6: cytokine interleukin 6 was tested. Which “Increased Immune Response, Fluzone” value did it give?
A: X

Q: “Interferon-gamma: cytokine, interferon produced by lymphocytes” was tested. Which “Increased Immune Response, Fluzone” value did it give?
A: X

Q: How did the “Increased Immune Response, Fluzone” value turn out when “N-formyl-NIe Leu-Phe-NIe-Tyr-Lys [Neutrophil Chemo-attractant Peptide]” was run?
A: X

Q: How did the “Increased Immune Response, Fluzone” value turn out when “Tyr-Leu-Glu-Pro-Gly-Pro-Val-Thr-Ala [Melanonin Peptide 946]” was run?
A: X

Q: “VGVAPG [Elastin Repeating Peptide, mammalian peptide adjuvant]” was tested. Which “Increased Immune Response, Fluzone” value did it give?
A: X

Q: B1 was tested. Which “Increased Immune Response, Fluzone” value did it give?
A: X

Q: How did the “Increased Immune Response, Fluzone” value turn out when B2 was run?
A: X
